From US20240239775A1, “FXR REGULATOR, PREPARATION METHOD THEREFOR, PHARMACEUTICAL COMPOSITION THEREOF AND USE THEREOF” (QINGDAO RUIJI MEDICAL TECHNOLOGY CO., LTD., priority 2021, published 2024)

Biological target: T1, FXR (Homo sapiens, UniProt Q96RI1)
T1 construct: 5 μL of 20 nM FXR-LBD Complete Coregulator buffer G; purchased ThermoFisher PV4833
T1 sequence (Q96RI1 262-486 limits assumed): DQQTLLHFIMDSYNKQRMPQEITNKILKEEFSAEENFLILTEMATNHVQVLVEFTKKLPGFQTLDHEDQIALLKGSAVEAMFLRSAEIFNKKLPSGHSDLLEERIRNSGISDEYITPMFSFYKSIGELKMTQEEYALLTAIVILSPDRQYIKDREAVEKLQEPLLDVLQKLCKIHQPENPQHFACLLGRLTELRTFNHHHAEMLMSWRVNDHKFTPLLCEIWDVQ
Assay: FXR antagonist screening by TR-FRET (LanthaScreen TR-FRET FXR co-activation assay kit)
Format: biochemical
Details: Table 1.1, FXR antagonistic activity; TR-FRET with CDCA; geometric means of at least two independent runs
Outline: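 FXR-LBD (20 nM working solution) mixed with compound, CDCA (200 μM working solution) as agonist, Fluorescein-SRC2-2 and Tb-anti-GST antibody in Coregulator buffer G; 10 h at room temperature. Coactivator recruitment read by TR-FRET, triplicate wells.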

| SMILES | IC50 |
| --- | --- |
| CCOC(=O)c1oc2ccc(S(=O)(=O)N(CCc3ccccc3)Cc3ccccc3F)cc2c1C [Example M4-14, ethyl 3-methyl-5-(N-(2-fluorobenzyl)-N-phenethylsulfamoyl)benzofuran-2-carboxylate] | 50 to 100 µM |
| CCOC(=O)c1oc2ccc(S(=O)(=O)N(CCc3ccccc3)Cc3ccccc3Cl)cc2c1C [Example M4-15, ethyl 3-methyl-5-(N-(2-chlorobenzyl)-N-phenethylsulfamoyl)benzofuran-2-carboxylate] | 50 to 100 µM |
| CCOC(=O)c1oc2ccc(S(=O)(=O)N(CCc3ccccc3)Cc3ccccc3Br)cc2c1C [Example M4-16, ethyl 3-methyl-5-(N-(2-bromobenzyl)-N-phenethylsulfamoyl)benzofuran-2-carboxylate] | 50 to 100 µM |
| CCOC(=O)c1oc2ccc(S(=O)(=O)N(CCc3ccccc3)Cc3ccccc3C)cc2c1C [Example M4-17, ethyl 3-methyl-5-(N-(2-methylbenzyl)-N-phenethylsulfamoyl)benzofuran-2-carboxylate] | 50 to 100 µM |
| CCOC(=O)c1oc2ccc(S(=O)(=O)N(CCc3ccccc3)Cc3ccccc3C(F)(F)F)cc2c1C [Example M4-18, ethyl 3-methyl-5-(N-(2-trifluoromethylbenzyl)-N-phenethylsulfamoyl)benzofuran-2-carboxylate] | 50 to 100 µM |
| CCOC(=O)c1oc2ccc(S(=O)(=O)N(CCc3ccccc3)Cc3ccccc3[N+](=O)[O-])cc2c1C [Example M4-19, ethyl 3-methyl-5-(N-(2-nitrobenzyl)-N-phenethylsulfamoyl)benzofuran-2-carboxylate] | 50 to 100 µM |
| CCOC(=O)c1oc2ccc(S(=O)(=O)N(CCc3ccccc3)Cc3cccc(F)c3)cc2c1C [Example M4-20, ethyl 3-methyl-5-(N-(3-fluorobenzyl)-N-phenethylsulfamoyl)benzofuran-2-carboxylate] | 50 to 100 µM |
| CCOC(=O)c1oc2ccc(S(=O)(=O)N(CCc3ccccc3)Cc3cccc(Cl)c3)cc2c1C [Example M4-21, ethyl 3-methyl-5-(N-(3-chlorobenzyl)-N-phenethylsulfamoyl)benzofuran-2-carboxylate] | 50 to 100 µM |
| CCOC(=O)c1oc2ccc(S(=O)(=O)N(CCc3ccccc3)Cc3cccc(Br)c3)cc2c1C [Example M4-22, ethyl 3-methyl-5-(N-(3-bromobenzyl)-N-phenethylsulfamoyl)benzofuran-2-carboxylate] | 50 to 100 µM |
| CCOC(=O)c1oc2ccc(S(=O)(=O)N(CCc3ccccc3)Cc3cccc(C)c3)cc2c1C [Example M4-23, ethyl 3-methyl-5-(N-(3-methylbenzyl)-N-phenethylsulfamoyl)benzofuran-2-carboxylate] | 50 to 100 µM |
| CCOC(=O)c1oc2ccc(S(=O)(=O)N(CCc3ccccc3)Cc3cccc(C(F)(F)F)c3)cc2c1C [Example M4-24, ethyl 3-methyl-5-(N-(3-trifluoromethylbenzyl)-N-phenethylsulfamoyl)benzofuran-2-carboxylate] | 50 to 100 µM |
| CCOC(=O)c1oc2ccc(S(=O)(=O)N(CCc3ccccc3)Cc3cccc([N+](=O)[O-])c3)cc2c1C [Example M4-25, ethyl 3-methyl-5-(N-(3-nitrobenzyl)-N-phenethylsulfamoyl)benzofuran-2-carboxylate] | 50 to 100 µM |
| CCOC(=O)c1oc2ccc(S(=O)(=O)N(CCc3ccccc3)Cc3cccc(-c4ccccc4)c3)cc2c1C [Example M4-26, ethyl 3-methyl-5-(N-([1,1′-biphenyl]-3-ylmethyl)-N-phenethylsulfamoyl)benzofuran-2-carboxylate] | 50 to 100 µM |
| CCOC(=O)c1oc2ccc(S(=O)(=O)N(CCc3ccccc3)Cc3cccc(Oc4ccccc4)c3)cc2c1C [Example M4-27] | 50 to 100 µM |
| CCOC(=O)c1oc2ccc(S(=O)(=O)N(CCc3ccccc3)Cc3ccc(F)cc3)cc2c1C [Example M4-28, ethyl 3-methyl-5-(N-(4-fluorobenzyl)-N-phenethylsulfamoyl)benzofuran-2-carboxylate] | 50 to 100 µM |
| CCOC(=O)c1oc2ccc(S(=O)(=O)N(CCc3ccccc3)Cc3ccc(Cl)cc3)cc2c1C [Example M4-29, ethyl 3-methyl-5-(N-(4-chlorobenzyl)-N-phenethylsulfamoyl)benzofuran-2-carboxylate] | 50 to 100 µM |
| CCOC(=O)c1oc2ccc(S(=O)(=O)N(CCc3ccccc3)Cc3ccc(Br)cc3)cc2c1C [Example M4-30, ethyl 3-methyl-5-(N-(4-bromobenzyl)-N-phenethylsulfamoyl)benzofuran-2-carboxylate] | 50 to 100 µM |
| CCOC(=O)c1oc2ccc(S(=O)(=O)N(CCc3ccccc3)Cc3ccc(C)cc3)cc2c1C [Example M4-31, ethyl 3-methyl-5-(N-(4-methylbenzyl)-N-phenethylsulfamoyl)benzofuran-2-carboxylate] | 50 to 100 µM |
| CCOC(=O)c1oc2ccc(S(=O)(=O)N(CCc3ccccc3)Cc3ccc(C(F)(F)F)cc3)cc2c1C [Example M4-32, ethyl 3-methyl-5-(N-(4-trifluoromethylbenzyl)-N-phenethylsulfamoyl)benzofuran-2-carboxylate] | 50 to 100 µM |
| CCOC(=O)c1oc2ccc(S(=O)(=O)N(CCc3ccccc3)Cc3ccc(C#N)cc3)cc2c1C [Example M4-33, ethyl 3-methyl-5-(N-(4-cyanobenzyl)-N-phenethylsulfamoyl)benzofuran-2-carboxylate] | 50 to 100 µM |
| CCOC(=O)c1oc2ccc(S(=O)(=O)N(CCc3ccccc3)Cc3ccc(OC(F)(F)F)cc3)cc2c1C [Example M4-34, ethyl 3-methyl-5-(N-(4-(trifluoromethoxy)benzyl)-N-phenethylsulfamoyl)benzofuran-2-carboxylate] | 50 to 100 µM |
| CCOC(=O)c1oc2ccc(S(=O)(=O)N(CCc3ccccc3)Cc3ccc(SC(F)(F)F)cc3)cc2c1C [Example M4-35, ethyl 3-methyl-5-(N-(4-(trifluoromethylthio)benzyl)-N-phenethylsulfamoyl)benzofuran-2-carboxylate] | 50 to 100 µM |
| CCOC(=O)c1oc2ccc(S(=O)(=O)N(CCc3ccccc3)Cc3ccc(C(C)C)cc3)cc2c1C [Example M4-36, ethyl 3-methyl-5-(N-(4-isopropylbenzyl)-N-phenethylsulfamoyl)benzofuran-2-carboxylate] | 50 to 100 µM |
| CCOC(=O)c1oc2ccc(S(=O)(=O)N(CCc3ccccc3)Cc3ccc(C(C)(C)C)cc3)cc2c1C [Example M4-37, ethyl 3-methyl-5-(N-(4-(tert-butyl)benzyl)-N-phenethylsulfamoyl)benzofuran-2-carboxylate] | 50 to 100 µM |
| CCOC(=O)c1oc2ccc(S(=O)(=O)N(CCc3ccccc3)Cc3ccc(C(C)=O)cc3)cc2c1C [Example M4-38, ethyl 3-methyl-5-(N-(4-acetylbenzyl)-N-phenethylsulfamoyl)benzofuran-2-carboxylate] | 50 to 100 µM |

Same assay, conditions: Table 1.2, FXR antagonistic activity; TR-FRET with CDCA; geometric means of at least two independent runs

| SMILES | IC50 |
| --- | --- |
| Cc1c(C(=O)O)sc2ccc(S(=O)(=O)N(CCc3cccs3)c3ccccc3N3CCN(C(=O)c4sccc4Br)CC3)cc12 [Example F27-S183, 5-(N-(2-(4-(3-bromothiophene-2-carbonyl)piperazin-1-yl)phenyl)-N-(2-(thiophen-2-yl)ethyl)sulfamoyl)-3-methylbenzothiophene-2-carboxylic acid] | 0.1 to 10 µM |
| Cc1c(CO)oc2ccc(S(=O)(=O)N(CCc3ccccc3)c3ccccc3N3CCN(C(=O)c4sccc4Br)CC3)cc12 [Example F27-S184, N-(2-(4-(3-bromothiophene-2-formyl)piperazin-1-yl)phenyl)-2-hydroxymethyl-3-methyl-N-phenethylbenzofuran-5-sulfonamide] | 0.1 to 10 µM |
